{"source": "patent US20080194530A1", "about": "“Chemical Compounds” (Phytopharm PLC, priority 2004, published 2008)", "key": {"[1]": {"test": "Desolvation / dehydration of crystalline forms on drying or heating", "format": "physicochemical", "settings": "for temperature of heating/drying at which the form is converted to non-solvated non-hydrated form B: desolvation or dehydration to form B"}, "[2]": {"test": "Solid-state stability of crystalline forms on exposure to humidity", "format": "physicochemical"}}, "data": [{"smiles": "C[C@H]1CC[C@@]2(OC1)O[C@H]1C[C@H]3[C@@H]4CC[C@@H]5C[C@@H](O)CC[C@]5(C)[C@H]4CC[C@]3(C)[C@H]1[C@@H]2C", "note": "[form A, sarsasapogenin]", "values": [{"measurement": "stability with respect to further drying", "setting": "[1]; after filtration and initial drying", "result": "reasonable stability"}, {"measurement": "temperature of heating/drying at which the form is converted to non-solvated non-hydrated form B", "setting": "[1]; listed as hemi acetone solvate", "result": "80-100 °C"}, {"measurement": "form change on exposure to humidity", "setting": "[2]; humidity of 50% or greater", "result": "led to the formation of form C"}]}, {"smiles": "C[C@H]1CC[C@@]2(OC1)O[C@H]1C[C@H]3[C@@H]4CC[C@@H]5C[C@@H](O)CC[C@]5(C)[C@H]4CC[C@]3(C)[C@H]1[C@@H]2C", "note": "[form C, sarsasapogenin]", "values": [{"measurement": "temperature of heating/drying at which the form is converted to non-solvated non-hydrated form B", "setting": "[1]", "result": "40-60 °C"}]}, {"smiles": "CC1CCC2(OC1)O[C@H]1CC3C4CC[C@@H]5C[C@@H](O)CC[C@]5(C)C4CC[C@]3(C)C1[C@@H]2C", "note": "(stereo partly drawn) [form D, sarsasapogenin]", "values": [{"measurement": "solvate stoichiometry on filtration and drying", "setting": "[1]", "result": "variable stoichiometry"}]}, {"smiles": "C[C@H]1CC[C@@]2(OC1)O[C@H]1C[C@H]3[C@@H]4CC[C@@H]5C[C@@H](O)CC[C@]5(C)[C@H]4CC[C@]3(C)[C@H]1[C@@H]2C", "note": "[form H, sarsasapogenin]", "values": [{"measurement": "form change on storage", "setting": "[2]; 40° C. and 75% relative humidity for 18 days", "result": "furnish form I"}]}]}
